This is an account of results in US11352317B2, “Rosin-based small molecular weight hydrogelator and its application” (Jiangnan University, priority 2019, dated 2022).

A short description of data set [1]: Steady-state shear of comparative aqueous solutions. It counts as physicochemical. The settings on record: 5 mmol·L^−1 aqueous solution; for viscosity of the system (steady-state shear): high or low shear rates.
Data set [2] deals with L929 cells. Briefly: 3D cell incubation in hydrogel, FDA/PI staining. It counts as cell-based. The settings on record: 3D incubation in hydrogel, 24 h, 48 h and 96 h. The method, then: L929 cells were encapsulated in a 6-dehydroabietylamide-N,N-dimethyl-hexylamine oxide gel under sterile conditions for 3D cell incubation. The cell suspension was added into the 6-dehydroabietylamide-N,N-dimethyl-hexylamine oxide solution with a sol state, and a cell/hydrogel system was formed within 30 s, and further incubated at 37° C. for 15 min. Thereafter, 2 mL of RPMI-1640 medium containing 10% FBS fetal bovine serum and 1% penicillin/streptomycin was gently added to the incubation dish, and the cell/hydrogel system was incubated in a humidified atmosphere of 37° C. and 5% CO2. The medium was replaced after 1 h of incubation and then replaced every 12 h. After incubation for 24 h, 48 h and 96 h, the cell/hydrogel system was stained with FDA/PI and the cells were observed by a confocal laser scanning microscope. […] It can be seen that 6-dehydroabietylamide-N,N-dimethyl-hexylamine oxide hydrogel can be used as a 3D cell incubation scaffold and had potential application in cell therapy and tissue regeneration.

Data set [3] can be described thus: Determination of gel behavior (vial inversion). It counts as physicochemical. On the procedure:
To 1 mL of deionized water, 6-dehydroabietylamide-N,N-dimethyl-hexylamine oxide was added (concentrations were 4 mmol·L^−1, 10 mmol·L^−1, 15 mmol·L^−1, 20 mmol·L^−1, and 25 mmol·L^−1, respectively). The solution was heated to 40° C. to completely dissolve the 6-dehydroabietylamide-N,N-dimethyl-hexylamine oxide, and then allowed to stand at room temperature, and the solution state was investigated.
It can be seen from the photograph of the appearance of a gel formed by 6-dehydroabietylamide-N,N-dimethyl-hexylamine oxide in FIG. 5 (concentrations from left to right were 4 mmol·L^−1, 10 mmol·L^−1, 15 mmol·L^−1, 20 mmol·L^−1, and 25 mmol·L^−1, respectively) that when the concentration of 6-dehydroabietylamide-N,N-dimethyl-hexylamine oxide was greater than 4 mmol·L^−1, the 6-dehydroabietylamide-N,N-dimethyl-hexylamine oxide can support its own weight without flowing after invertion, indicating the formed gel has excellent viscoelasticity.
In a hydrogel formed by 4 mmol·L^−1 of 6-dehydroabietylamide-N,N-dimethyl-hexylamine oxide, the critical gelling concentration of the 6-dehydroabietylamide-N,N-dimethyl-hexylamine oxide was only 0.176%. Upon conversion, on average, each gelling agent molecule can immobilize 13,889 water molecules, showing extremely high gelling efficiency.

A short description of data set [4]: Gel sustained-release performance test (in vitro release of embedded Rhodamine B). In kind it is physicochemical. The note with it: embedded in 20 mmol·L^−1 hydrogel, 37° C. On the procedure: Rhodamine B was embedded in a hydrogel formed by 20 mmol·L^−1 6-dehydroabietylamide-N,N-dimethyl-hexylamine oxide and in vitro release experiments were carried out in a constant temperature oscillating water bath at 37° C. The absorbance of the release solution was measured by an ultraviolet-visible spectrophotometer to obtain an in vitro release curve. […] It can be seen that the hydrogel formed by 6-dehydroabietylamide-N,N-dimethyl-hexylamine oxide had good sustained-release ability and can be used in the fields of drug sustained release and so on.

Data set [5] is described as follows: Determination of surface tension (ring method). It counts as physicochemical. The settings on record: aqueous, 25° C. On the procedure: Determination of surface tension. A series of aqueous surfactant solutions having different concentrations were prepared, and the surface tension was measured by a ring method at 25° C., and the surface tension curve was plotted.

Data set [6] can be described thus: Gel emulsion stability test. In kind it is physicochemical. The settings on record: 20° C.; for Stability: gel emulsion, 0.22% stabilizer. On the procedure:
To the 0.22% solution of 6-dehydroabietylamide amine oxide, different volumes of oil were added (the volume ratios of 6-dehydroabietylamide amine oxide solution to oil were 0.2:9.8, 3:7, 5:5,7:3, and 9.9: 0.1, and total volume was 4 mL), and then the mixture was emulsified at 11,000 r/min using an ultraturrax homogenizer (IKA T18 basic, S18N-10G head) for 2 min. The emulsion was allowed to stand and cool at a low temperature to form a white gel emulsion.
The prepared gel emulsion was placed in a 20° C. incubator, and the stability of the gel emulsion was observed. When the concentration of 6-dehydroabietylamide-N,N-dimethyl-hexylamine oxide as stabilizer was 0.22% of the mass of the continuous phase, and the volume fraction of the disperse phase was in the range of 1%-98%, a gel emulsion was formed.

Data set [7] can be described thus: Preparation of O/W type gel emulsion at different oil-water ratios. It counts as physicochemical. The note with it: 20 mmol·L^−1 stabilizer, oil phase volume fraction 10% to 90%. The method, then:
An amount of 6-dehydroabietylamide amine oxide was added to a 22 mm (d)×52 mm (h) glass vial with a total volume of 10 mL. After adding a certain amount of deionized water, the vial was heated in a water bath at 50° C. until the 6-dehydroabietylamide amine oxide was completely dissolved to obtain a transparent solution. Different volumes of oil were added to the 6-dehydroabietylamide amine oxide solution (the volume ratios of 6-dehydroabietylamide amine oxide solution to oil were 1:9, 2:8, 3:7, 4:6, 5:5, 6:4, 7:3, 8:2, and 9:1, and total volume was 4 mL), then the mixture was emulsified at 11,000 r/min using an ultraturrax homogenizer (IKA T18 basic, S18N-10G head) for 2 min. The emulsion was allowed to stand and cool at a low temperature to form a white gel emulsion.

A short description of data set [8]: Circular dichroism spectrum of gel. The note with it: 5 mmol·L^−1 gel, 300-180 nm. It counts as physicochemical. On the procedure:
The measurement was carried out on a circular dichroism spectrometer model MOS-450. The signal was recorded at intervals of 0.1 nm within the wavelength range of 300-180 nm. Gel samples were measured using a 0.1 mm quartz sample cell.
(Circular dichroism is the unequal absorption of left and right circularly polarised light.)

The nature of data set [9]: Cryo-TEM microstructure of the gel system. It counts as physicochemical. The note with it: 5 mmol·L^−1 hydrogel. On the procedure: Sample preparation was carried out using an environment controlled low temperature sample preparation device Cryoplunge TM3, and the ambient temperature was fixed at 25° C. The relative humidity in the device cavity was adjusted to over 90%, about 5 μL of the sample was pipetted onto the surface of the micro-grid, and the droplets on the surface of the micro-gate were absorbed by patting the sample with the filter paper on both sides of Cp3 to obtain a very thin liquid film. The sample was then quickly inserted into liquid ethane cooled liquid nitrogen. The frozen sample was transferred to a sample rod cooled with liquid nitrogen and transferred to a transmission electron microscope for observation at an operating voltage of 120 kV. It can be seen from the in situ frozen transmission electron micrograph of a hydrogel sample formed by 5 mmol·L^−1 6-dehydroabietylamide-N,N-dimethyl-hexylamine oxide in FIG. 8 that the microscopic morphology of the hydrogel was a relatively rigid nanofiber having a cross-sectional diameter of about 10 nm and a length of more than 2 μm.
The reason was that the 6-dehydroabietylamide-N,N-dimethyl-hexylamine oxide molecule formed a left-handed helical fiber structure having a diameter of about 10 nm by molecular self-assembly. […]

As for `CC(C)c1ccc2c(c1)CCC1C(C)(C(=O)NCC[N+](C)(C)[O-])CCCC21C` (stereo not shown) [2-dehydroabietylamide-N,N-dimethyl-ethylamine oxide], in data set [1], the gel formation entry was “neither 2-dehydroabietylamide-N,N-dimethyl-ethylamine oxide nor 3-dehydroabietylamide-N,N-dimethyl-propylamine oxide could form a gel” and the “viscosity of the system (steady-state shear)” value is listed as “comparable to the viscosity of water”.
For `CC(C)c1ccc2c(c1)CCC1C(C)(C(=O)NCCC[N+](C)(C)[O-])CCCC21C` (stereo not shown) [3-dehydroabietylamide-N,N-dimethyl-propylamine oxide], in that order: “neither 2-dehydroabietylamide-N,N-dimethyl-ethylamine oxide nor 3-dehydroabietylamide-N,N-dimethyl-propylamine oxide could form a gel” and “comparable to the viscosity of water”.
On to `CC(C)c1ccc2c(c1)CCC1C(C)(C(=O)NCCCCCC[N+](C)(C)[O-])CCCC21C` (stereo not shown) [6-dehydroabietylamide-N,N-dimethyl-hexylamine oxide], for which the “viability and proliferation of L929 cells in the gel” value in data set [2] was “higher viability and proliferative ability”. Also, in data set [3] (at critical gelling concentration, upon conversion), the “water molecules immobilized per gelling agent molecule (on average)” value was 13,889. Also, the “concentration at which gel supports its own weight without flowing after inversion” value in [3] (deionized water, dissolved at 40° C., stood at room temperature) was “greater than 4 mmol·L^−1”. Also, the critical gelling concentration in [3] (in water, hydrogel formed by 4 mmol·L^−1, room temperature) worked out at 0.176%. Also, the “release rate of Rhodamine B” value is reported as 76% in [4] (in 40 h) and 28% in data set [4] (within 5 h). The compound also gave a critical micelle concentration in data set [5] of 0.56 mmol/L. The “γcmc (surface tension at cmc)” value in data set [5] stood at 35 mN·m^−1. Also, the “stability of the gel emulsion after placing for one year” value in [6] (0.22% of the mass of the continuous phase, disperse phase volume fraction 1%-98%) is on record as “did not undergo demulsification”. Also, the Stability result in data set [6] (continuous phase 0.2, disperse phase 9.8) is reported as “No demulsification occurs after incubation”; in data set [6] (continuous phase 3, disperse phase 7), “No demulsification occurs after incubation”; in [6] (continuous phase 5, disperse phase 5), “No demulsification occurs after incubation”; in data set [6] (continuous phase 7, disperse phase 3) it was “No demulsification occurs after incubation”; in data set [6] (continuous phase 9.9, disperse phase 0.1) it was “No demulsification occurs after incubation”. Further, the “stability of dodecane/hydrogel emulsion” value in [7] is on record as “no phase separation occurs”. In addition, the “chiral aggregate structure of nanofiber (CD signal)” value in data set [8] was “left-handed helix”. Besides, in data set [9], the “cross-sectional diameter of nanofiber” value is on record as “about 10 nm”. In addition, the length of nanofiber result in data set [9] was “more than 2 μm”.
